Publication PMC11833736 (ACS Pharmacology & Translational Science, 2025)
Values joined by “and” are separate entries in the source; they are usually repeats but may differ in a detail not shown here. Equal entries are not always repeated.

Legend:
[1] = Stability in the dark in the presence of L-glutathione (UV-vis); assay type: physicochemical; conditions: water, 37 °C, 500 μM L-glutathione, spectra after 2 and 24 h
Method: The synthesis and characterization of all three complexes have been described earlier and can be found in refs ([56]) and ([57]). In water or OptiMEM cell medium, the complexes were also previously found to be stable in the dark for at least 24 h at 37 °C. Upon blue or green light irradiation (λ = 452 or 517 nm), they are activated by photosubstitution of the thioether ligand to afford the aqua ruthenium complex and the free thioether ligand.[56] […] The UV–vis spectra were then recorded after 2 and 24 h separately. […] Additionally, we could not observe any color change, which is typical when one of the ligands is exchanged against another one.
UV–vis spectroscopy experiments were performed on a Cary 60 Varian spectrometer equipped with a temperature control set to 310 K and a magnetic stirrer. The measurements were performed in a quartz cuvette containing 3 mL of solution. […] Then, the UV–vis spectrum was recorded without the presence of GSH. After 4 min, GSH was added (0.5 mM) and UV–vis spectra were recorded directly after and after 2 and 24 h, while the vial was kept in the dark and at 37 °C.

[2] = cited from earlier work
AChE = AChE (Electrophorus electricus, UniProt O42275); conditions: for PI: AChE, IC50 dark / IC50 green light; for IC50: read-out: IC50,D, isolated AChE, 30 min in the dark, read 35 min after DTNB addition
Sequence of AChE (O42275 24-633): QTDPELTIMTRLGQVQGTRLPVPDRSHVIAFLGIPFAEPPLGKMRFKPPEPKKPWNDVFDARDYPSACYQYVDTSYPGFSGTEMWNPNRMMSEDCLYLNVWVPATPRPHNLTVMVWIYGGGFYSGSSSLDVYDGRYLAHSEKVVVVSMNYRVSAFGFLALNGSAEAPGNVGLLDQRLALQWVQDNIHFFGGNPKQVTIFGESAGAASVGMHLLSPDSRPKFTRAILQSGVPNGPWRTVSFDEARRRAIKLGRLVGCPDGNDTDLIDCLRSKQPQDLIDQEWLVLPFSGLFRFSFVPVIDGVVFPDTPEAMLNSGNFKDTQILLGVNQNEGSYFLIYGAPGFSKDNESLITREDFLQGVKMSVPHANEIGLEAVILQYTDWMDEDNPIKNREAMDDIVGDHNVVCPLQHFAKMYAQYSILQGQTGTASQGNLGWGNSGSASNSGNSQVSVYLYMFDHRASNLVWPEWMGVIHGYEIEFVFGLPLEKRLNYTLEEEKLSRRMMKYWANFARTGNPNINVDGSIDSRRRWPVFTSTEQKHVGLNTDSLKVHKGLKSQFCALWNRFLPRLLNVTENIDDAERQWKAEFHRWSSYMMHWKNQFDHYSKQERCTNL
Description: Among all enzymes involved in transmembrane signaling, another important one is AChE. In a modified procedure (for further details, see the Experimental Section), we checked whether the ruthenium complexes were able to inhibit AChE in the dark and after light activation. The colorimetric assay used Ellman’s reagent. […] The conversion of 5,5′-dithiobis(2-nitrobenzoic acid) (DTNB) to yellow 2-nitro-5-thiobenzoate (TNB) initiated by the addition of acetylthiocholine was then detected by UV–vis spectroscopy every 5 min for a total time of […]. […] The solution was further diluted 1:50 in 50 mM Tris buffer, pH = 8 (10 μL in 490 μL), and then placed in 4.5 mL of 50 mM Tris buffer, pH = 8. […] 50 μL of the enzyme and 50 μL of the complex solution were added to a 96-well plate in triplicates. […] Meanwhile, a 10 mM solution of acetylthiocholine iodide and 10 mM DTNB was prepared. After the respective time, in each well, 5 μL of the acetylthiocholine iodide and DTNB mixture was added. The absorbance was read at a microplate Tecan reader at 410 nm every 5 min for in total 40 min.

SH-SY5Y cells = experiment: Ru cellular uptake by ICP-MS, dark or green light; assay type: in vitro ADME; conditions: kept in the dark
Method: These surprising results led us to further investigate whether the uptake of the respective compounds plays a pivotal role in the alternation of the proliferation. […] The complex was allowed to incubate for 24 h after irradiation before the ruthenium cellular content was analyzed by ICP-MS. […] We finally decided to incubate the SH-SY5Y cells with the EC50 values obtained from the cytotoxicity experiment using the U-87MG cell, as those procedures would allow one to observe the effect of the prodrug on the healthy neuron-like cells when treated with the phototoxic compound dose. […] Overall, cellular uptake in neuron-like SH-SY5Y cells followed the same trends as those for GBM cells U-87MG in the dark, while uptake was much higher after light activation.
1 mL of SH-SY5Y cells were seeded in 12-well plates (Greiner, No. 665180; 500.000 cells per well). […] After an additional 24 h of incubation, the cells were trypsined, collected, and centrifuged. The resulting cell pellet was dissolved in 1 mL of PBS and counted via a BioRad TC20 automated cell counter. Afterward, the solution was centrifuged and washed again with PBS with subsequent centrifuging two more times. The resulting cell pellet was digested in 0.5 mL of HNO3 overnight in a hot oven (90 °C). The solution was diluted with Milli-Q water to 10 mL, and the Ru and Ca content [ppb] was measured via ICP-MS.

CSCCO.F[P-](F)(F)(F)(F)F.F[P-](F)(F)(F)(F)F.[Ru+2].c1ccc(-c2cccc(-c3ccccn3)n2)nc1.c1ccc2cc(-c3cc4ccccc4cn3)ncc2c1 [[2](PF6)2]
stability in the dark with GSH (UV-vis, in words) [1]: no isosbestic points suggesting ligand exchange were observed
LogP [2]: 3.08
PI (AChE): >1.5
IC50 (AChE): > 15 µM
Ru uptake, Dark (SH-SY5Y cells; 20 μM): 1.02 ± 0.63 ng Ru/mio. cells and 1.0 ng Ru/mio. cells

CSCCO.F[P-](F)(F)(F)(F)F.F[P-](F)(F)(F)(F)F.[Ru+2].c1ccc(-c2cccc(-c3ccccn3)n2)nc1.c1ccc2cc(Nc3cc4ccccc4cn3)ncc2c1 [[3](PF6)2]
stability in the dark with GSH (UV-vis, in words) [1]: no isosbestic points suggesting ligand exchange were observed
LogP [2]: 2.92
PI (AChE): 2
IC50 (AChE): 9.6 µM
Ru uptake, Dark (SH-SY5Y cells; 10 μM): 2.44 ± 0.63 ng Ru/mio. cells and 2.4 ng Ru/mio. cells
